This note sets out measurements from US20080280920A1, “Plasminogen Activator Inhibitor-1 Inhibitors” (priority 2005, published 2008).

A word on the pIC50: it is −log10 of the IC50, conventionally taken in molar units. Low values mean a high IC50, high ones a low IC50.

Experiment [1] addresses T1, PAI-1 interaction with vitronectin (Homo sapiens, UniProt P05121).
T1 construct: purchased Molecular Innovations
Put plainly: PAI-1 vitronectin interaction ELISA. Type of experiment: binding. As to conditions: 15 nM PAI-1, vitronectin coated plates. How it is done: Principle: This ELISA assay is based on the interaction of wildtype human PAI-1 (aa 110-145) with the N-terminal somatomedin B-like (SMB) domain (aa 1-40) on vitronectin. PAI-1 was allowed to bind to vitronectin coated plates. The bound PAI-1 was detected with a HRP-conjugated polyclonal goat anti-human PAI-1 antibody using a standard ELISA method. In order to screen these compounds for their ability to disrupt PAI-1's interaction with vitronectin, PAI-1 was pre-incubated with various concentrations of the lead compounds before being allowed to bind to vitronectin.
Method: Human monomeric vitronectin (Vn; Molecular Innovations) was diluted to a concentration of 2.5 μg/ml in a buffer containing 100 mM Na2CO3, pH 9.6. […]
In a separate 96-well microtiter plate 20 μL per well of wildtype human PAI-1 (15 nM final concentration) was added with or without various concentrations of lead compounds (1 μM to 1000 μM final concentration) and incubated at room temperature for 15 minutes on a rotating shaker. […] Optical density was measured at 450 nm on a SoftMax PrO™ plate reader.
Where vitronectin inhibition was evident, IC50 values for a test compound were calculated by fitting a non-linear sigmoidal regression curve to log micromolar concentration versus optical density data.
A general note: An ELISA detects its analyte on a solid surface through an enzyme-linked reagent.

A further experiment addresses T2, wildtype human PAI-1 (Homo sapiens, UniProt P05121).
T2 construct: purchased Molecular Innovations Lot# HWT-804
Put plainly: PAI-1/uPA assay (residual uPA activity, fluorescent substrate SpectroFluor). Type of experiment: biochemical. To be noted: for Percent PAI-1 inhibition: at the concentration given, percent of activity of untreated PAI-1; for Conc. of compound required for PAI-1 inhibition: concentration giving the percent inhibition, 6 nM PAI-1, 8 nM uPA. How it is done:
Principle: The assay is based on using a fluorescent substrate (SpectroFluor) to measure residual uPA following inhibition of uPA by PAI-1. PAI-1 used in the assay is pre-treated in the presence of increasing concentrations of the lead compounds to screen for any inhibitory effects on PAI-1. Method: This assay was performed in 96 well microtiter plates. The concentrations of uPA (8 nM) and PAI-1 (6 nM) used in this assay were carefully optimized when using the fluorescent substrate, SpectroFluor™. Stock solutions (10 mM) of all lead compounds were prepared fresh in DMSO. […] 20 μl of 6 nM wildtype human PAI-1 (Molecular Innovations, Lot# HWT-804) was incubated for 15-20 minutes at room temperature in 96 well microtiter plates either with buffer, (50 mM HEPES, 150 mM NaCl, 0.05% Tween-20, 1% BSA, pH 6.6) or various concentrations (10 nM to 100 μM final concentration) of lead compounds in a total volume of 80 μl. A 20 μl aliquot of 8 nM uPA (HMW) solution in 0.05M Tris Buffered™ saline (TBS), pH 8.4 was added to each well and the mixture incubated for an additional 5 minutes at RT. The proteolytic reaction was initiated by addition of 50 μl of 0.1 mM SpectroFluor (Spectrozyme UK Fluorogenic substrate) to each well. The kinetics of the free chromophore, 7-amino-4-methylcoumarin (AMC) released in the course of peptide cleavage by the protease, uPA, was monitored for 30 minutes at 37° C. on a spectrofluorometric microplate reader with an excitation wavelength of 360 nm and emission wavelength of 440 nm. Kinetic data regarding the rate of substrate cleavage by uPA was acquired with Softmax PrO™ software. The difference between the residual uPA activity in the presence or absence of untreated PAI-1, at the molar ratio used, was considered as the “total” PAI-1 activity (100%). The inhibition of uPA by PAI-1 treated with lead compounds was expressed as a percentage of the initial activity of untreated PAI-1. Controls were performed during each experiment to ensure the nearly complete inhibition of uPA by untreated PAI-1 and also to ensure the absence of any direct effect of the lead compounds on uPA alone or on SpectroFluor.

pIC50: −log10 of the molar value.

T2 sequence (P05121 24-402): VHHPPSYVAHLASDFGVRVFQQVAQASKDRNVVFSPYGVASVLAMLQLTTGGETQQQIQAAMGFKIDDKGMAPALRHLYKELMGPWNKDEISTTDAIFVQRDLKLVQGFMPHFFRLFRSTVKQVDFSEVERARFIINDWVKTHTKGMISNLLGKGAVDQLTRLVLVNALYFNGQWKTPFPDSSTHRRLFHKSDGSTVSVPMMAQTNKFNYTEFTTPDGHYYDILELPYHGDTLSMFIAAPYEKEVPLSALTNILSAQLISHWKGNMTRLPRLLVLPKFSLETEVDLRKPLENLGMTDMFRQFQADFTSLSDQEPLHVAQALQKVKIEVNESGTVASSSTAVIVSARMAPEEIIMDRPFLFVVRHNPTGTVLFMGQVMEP
T1 sequence (P05121 24-402): as above

With `CCOC(=O)[C@H](CCCNC(=N)NS(=O)(=O)c1c(C)cc(OC)c(C)c1C)NC(=O)N[C@@H](Cc1csc2ccccc12)C(=O)OCC` [Compound Q012059, (2S)-2-[({[(1S)-1-carboxy-2-(thianaphthen-3-yl)ethyl]amino}carbonyl)amino]-5-({imino[(4-methoxy-2,3,6-trimethylphenylsulfonyl)amino]methyl}amino)pentanoic acid diethyl ester], in experiment [1], the negative-log IC50 (pIC50) was 3.04. On wildtype human PAI-1, the “Percent PAI-1 inhibition” value is recorded as 23 and the “Conc. of compound required for PAI-1 inhibition” value was 10 µM.

Consider `COc1cc(CNCCCn2ccnc2)cc(CN2CCN(c3ncccn3)CC2)c1O` [Compound Q012110, 2-Methoxy-4-({3-[(1H-imidazol-1-yl)propyl]amino}methyl)-6-[(4-pyrimidin-2-ylpiperazin-1-yl)methyl]phenol], for which the pIC50 in experiment [1] is 3.47. Moreover, on wildtype human PAI-1, the “Percent PAI-1 inhibition” value came to 57 and the “Conc. of compound required for PAI-1 inhibition” value was 5 µM.
